Experimental data taken from patent US7273846B2, “Selective melanin-concentrating hormone type-1 receptor agonists” (priority 2002, dated 2007).
pEC50, pIC50: −log10 of the molar value. Residues, ends and D or L forms follow the SMILES beside them.

Tests used:
MCH-2R [1] = molecular target: T1, MCH-2R (Homo sapiens, UniProt Q969V1); assay: Aequorin bioluminescence functional assay, 293AEQ17/MCH-2R cells; type: cell-based; set-up: expressed in transfected cells; MCH-2R Activation %: concentration or dose not given beside the values; settings: for pEC50: aequorin, 293AEQ17/MCH-2R cells; for MCH-2R Activation %: human MCH = 100
Text: (§1) The aequorin bioluminescence assay is a reliable test for identifying G-protein-coupled receptors that couple through the G protein subunit family consisting of Gq and G11. Gq and G11 coupling leads to the activation of phospholipase C, mobilization of intracellular calcium, and activation of protein kinase C.
Stable cell lines expressing either the MCH-1R or the MCH-2R and the aequorin reporter protein were used.
(§2) The cells were harvested, washed once in ECB medium, and resuspended to 500,000 cells/mL. 100 μL of cell suspension (corresponding to 5×10^4 cells) was then injected into the test plate containing the hMCH peptides, and the integrated light emission was recorded over 30 seconds, in 0.5-s units. 20 μL of lysis buffer (0.1% final Triton X-100 concentration) was then injected and the integrated light emission recorded over 10 seconds, in 0.5-s units. The “fractional response” values for each well were calculated by taking the ratio of the integrated response to the initial challenge to the total integrated luminescence including the Triton X-100 lysis response.

MCH-1R [2] = molecular target: T2, MCH-1R (Homo sapiens, UniProt Q99705); assay: Aequorin bioluminescence functional assay, 293AEQ17/MCH-1R cells; type: cell-based; set-up: expressed in transfected cells; settings: for MCH-1R Activation %: human MCH = 100, activation at 10 μM concentration; for fold lower agonist activity at hMCH-1R: relative to Ac-hMCH(6-16)-NH2; for pEC50: aequorin, 293AEQ17/MCH-1R cells, read-out: MCH-1R EC50
Method: as §1
Stable cell lines expressing either the MCH-1R or the MCH-2R and the aequorin reporter protein were used. The assay was performed using a Luminoskan RT luminometer (Labsystems Inc., Gaithersburg, Md.) controlled by custom software written for a Macintosh PowerPC 6100.
as §2

MCH-1R [3] = molecular target: T2, MCH-1R; assay: biochemical
MCH-2R [4] = molecular target: T1, MCH-2R; assay: Radioligand binding assay (SPA), MCH-2R; settings: for pIC50: MCH-2R IC50, [125I]-[Phe13,Tyr19]-hMCH SPA, COS or CHO MCH-2R membranes
MCH-1R [5] = molecular target: T2, MCH-1R

T1 sequence (Q969V1 whole entry): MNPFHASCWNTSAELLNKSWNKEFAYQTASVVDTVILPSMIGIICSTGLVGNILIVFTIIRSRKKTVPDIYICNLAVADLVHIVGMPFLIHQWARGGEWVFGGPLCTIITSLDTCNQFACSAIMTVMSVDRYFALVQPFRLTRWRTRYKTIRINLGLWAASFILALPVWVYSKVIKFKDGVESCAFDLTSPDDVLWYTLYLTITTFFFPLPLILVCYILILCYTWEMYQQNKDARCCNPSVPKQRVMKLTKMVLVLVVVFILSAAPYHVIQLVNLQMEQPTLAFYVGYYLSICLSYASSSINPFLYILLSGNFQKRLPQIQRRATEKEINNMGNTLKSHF
T2 sequence (Q99705 whole entry): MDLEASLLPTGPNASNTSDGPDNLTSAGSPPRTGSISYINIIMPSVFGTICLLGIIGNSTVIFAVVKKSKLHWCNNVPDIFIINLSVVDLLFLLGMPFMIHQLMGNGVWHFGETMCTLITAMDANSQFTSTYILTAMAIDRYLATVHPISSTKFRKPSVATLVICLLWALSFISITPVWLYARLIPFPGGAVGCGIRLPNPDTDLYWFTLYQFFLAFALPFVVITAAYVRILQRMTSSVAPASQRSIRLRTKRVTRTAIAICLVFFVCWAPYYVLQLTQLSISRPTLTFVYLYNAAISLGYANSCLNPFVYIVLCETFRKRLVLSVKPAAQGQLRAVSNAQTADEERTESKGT

SMILES | pEC50 (MCH-2R [1]) | MCH-2R Activation % (MCH-2R [1]) [%] | Selectivity 2/1 (MCH-2R/MCH-1R EC50 activity ratio) (MCH-1R [2]) | MCH-1R Activation % (MCH-1R [2]) [%] | pIC50 (MCH-1R [3]) | fold weaker binding at hMCH-2R (MCH-2R [4]; relative to Ac-hMCH(6-16)-NH2) | binding to hMCH-1R in words (MCH-1R [5]) | Selectivity 2/1 (MCH-2R/MCH-1R IC50 binding ratio) (MCH-1R [5]) | fold lower agonist activity at hMCH-1R (MCH-1R [2]) [fold] | binding to hMCH-2R in words (MCH-2R [4]) | pIC50 (MCH-2R [4]) | fold lower binding affinity at hMCH-1R (MCH-1R [5]; relative to Ac-hMCH(6-16)-NH2) | pEC50 (MCH-1R [2]) | fold lower agonist potency at hMCH-2R (MCH-2R [1]; relative to Ac-hMCH(6-16)-NH2) [fold] | fold more selective as agonist for hMCH-1R than hMCH-2R (MCH-1R [2]) | agonism at hMCH-2R in words (MCH-2R [1]) | agonism at hMCH-1R in words (MCH-1R [2])
CSCC[C@@H]1NC(=O)[C@@H](NC(=O)[C@H](N)CCCNC(=N)N)CSSC[C@@H](C(N)=O)NC(=O)[C@@H]2CCCN2C(=O)[C@H](CCCNC(=N)N)NC(=O)[C@H](Cc2ccc(O)cc2)NC(=O)[C@H](C(C)C)NC(=O)[C@H](CCCNC(=N)N)NC(=O)CNC(=O)[C@H](CC(C)C)NC1=O [SEQ. ID. NO. 4] | 7.26 | 83 | 0.5 | 130 | 7.46 | more than 10 fold | equipotent to Ac-hMCH(6-16)-NH2 | 130 | – | – | – | – | – | – | – | – | –
CSCC[C@@H]1NC(=O)[C@@H](NC(=O)[C@@H](CCCCN)NC(C)=O)CSSC[C@@H](C(N)=O)NC(=O)[C@@H]2CCCN2C(=O)[C@H](CCCNC(=N)N)NC(=O)[C@H](Cc2ccc(O)cc2)NC(=O)[C@H](C(C)C)NC(=O)[C@H](CCCNC(=N)N)NC(=O)CNC(=O)[C@H](CC(C)C)NC1=O [SEQ. ID. NO. 13] | – | 55 | 22 | 130 | 9.52 | – | – | 3800 | – | – | – | – | – | – | – | – | –
CSCC[C@@H]1NC(=O)CCSSC[C@@H](C(N)=O)NC(=O)[C@@H]2CCCN2C(=O)[C@H](CCCNC(=N)N)NC(=O)[C@H](Cc2ccc(O)cc2)NC(=O)[C@H](C(C)C)NC(=O)[C@H](CCCNC(=N)N)NC(=O)CNC(=O)[C@H](CC(C)C)NC1=O [SEQ. ID. NO. 15] | < 5.52 | 47 | 5 | 92 | – | – | – | 500 | ~30 | very weak ligand | 5.46 | about 5 fold | – | – | – | – | –
CSCC[C@@H]1NC(=O)[C@@H](NC(=O)[C@H](CCCNC(=N)N)NC(C)=O)CSSC[C@@H](C(N)=O)NC(=O)[C@@H]2CCCN2C(=O)[C@H](CCCNC(=N)N)NC(=O)[C@H](Cc2ccc(O)cc2)NC(=O)[C@H](C(C)C)NC(=O)[C@H](CCCNC(=N)N)NC(=O)[C@H](CCCCN)NC(=O)[C@H](CC(C)C)NC1=O [SEQ. ID. NO. 24] | – | 40 | 1 | 43 | – | – | – | 86 | 300 | – | 5.84 | – | – | 300 | – | – | –
CSCC[C@@H]1NC(=O)[C@@H](NC(=O)[C@H](CCCNC(=N)N)NC(C)=O)CSSC[C@@H](C(N)=O)NC(=O)[C@@H]2CCCN2C(=O)[C@H](CCCNC(=N)N)NC(=O)[C@H](Cc2ccc(O)cc2)NC(=O)[C@H](C(C)C)NC(=O)[C@H](CCCNC(=N)N)NC(=O)[C@H](CC(N)=O)NC(=O)[C@H](CC(C)C)NC1=O [SEQ. ID. NO. 25] (HELM PEPTIDE1{[ac].R.C.M.L.N.R.V.Y.R.P.C.[am]}$PEPTIDE1,PEPTIDE1,3:R3-12:R3$$$V2.0) | – | 86 | 4.7 | 126 | 9.55 | – | – | 1800 | – | – | – | – | 7.29 | – | – | – | –
CSCC[C@@H]1NC(=O)[C@@H](NC(=O)[C@@H](CCCNC(=N)N)NC(C)=O)CSSC[C@@H](C(N)=O)NC(=O)[C@@H]2CCCN2C(=O)[C@H](CCCNC(=N)N)NC(=O)[C@H](Cc2ccc(O)cc2)NC(=O)[C@H](C(C)C)NC(=O)[C@H](CCCNC(=N)N)NC(=O)[C@H](CC(N)=O)NC(=O)[C@H](CC(C)C)NC1=O [SEQ. ID. NO. 29] (HELM PEPTIDE1{[ac].[dR].C.M.L.N.R.V.Y.R.P.C.[am]}$PEPTIDE1,PEPTIDE1,3:R3-12:R3$$$V2.0) | – | 20 | 150 | 120 | 9.30 | – | – | 6600 | – | – | – | – | – | – | about 150 fold | – | activated hMCH-1R almost as efficiently as Ac-hMCH(6-16)NH2
CCCC[C@@H]1NC(=O)[C@@H](NC(=O)[C@@H](CCCNC(=N)N)NC(C)=O)CSSC[C@@H](C(N)=O)NC(=O)[C@@H]2CCCN2C(=O)[C@H](CCCNC(=N)N)NC(=O)[C@H](Cc2ccc(O)cc2)NC(=O)[C@H](C(C)C)NC(=O)[C@H](CCCNC(=N)N)NC(=O)[C@H](CC(N)=O)NC(=O)[C@H](CC(C)C)NC1=O [SEQ. ID. NO. 31] (HELM PEPTIDE1{[ac].[dR].C.[Nle].L.N.R.V.Y.R.P.C.[am]}$PEPTIDE1,PEPTIDE1,3:R3-12:R3$$$V2.0) | – | 23 | 23 | 130 | 9.55 | – | – | 5700 | – | – | – | – | – | – | – | – | potent and selective hMCH-1R agonists

Continued, in another order:

pEC50 (MCH-2R [1]) | MCH-2R Activation % (MCH-2R [1]) [%] | Selectivity 2/1 (MCH-2R/MCH-1R EC50 activity ratio) (MCH-1R [2]) | MCH-1R Activation % (MCH-1R [2]) [%] | pIC50 (MCH-1R [3]) | fold weaker binding at hMCH-2R (MCH-2R [4]; relative to Ac-hMCH(6-16)-NH2) | binding to hMCH-1R in words (MCH-1R [5]) | Selectivity 2/1 (MCH-2R/MCH-1R IC50 binding ratio) (MCH-1R [5]) | fold lower agonist activity at hMCH-1R (MCH-1R [2]) [fold] | binding to hMCH-2R in words (MCH-2R [4]) | pIC50 (MCH-2R [4]) | fold lower binding affinity at hMCH-1R (MCH-1R [5]; relative to Ac-hMCH(6-16)-NH2) | pEC50 (MCH-1R [2]) | fold lower agonist potency at hMCH-2R (MCH-2R [1]; relative to Ac-hMCH(6-16)-NH2) [fold] | fold more selective as agonist for hMCH-1R than hMCH-2R (MCH-1R [2]) | SMILES | agonism at hMCH-2R in words (MCH-2R [1]) | agonism at hMCH-1R in words (MCH-1R [2])
– | 74 | 0.25 | 76 | – | – | – | 11 | – | – | 7.26 | – | – | – | – | CSCC[C@@H]1NC(=O)[C@@H](NC(=O)[C@H](CCCNC(=N)N)NC(C)=O)CSSC[C@@H](C(N)=O)NC(=O)[C@@H]2CCCN2C(=O)[C@H](CCCNC(=N)N)NC(=O)[C@H](Cc2ccc(O)cc2)NC(=O)[C@H](C(C)C)NC(=O)[C@H](CCCNC(=N)N)NC(=O)[C@H](CC2CCCCC2)NC(=O)[C@H](CC(C)C)NC1=O [SEQ. ID. NO. 19] | poorly activated both receptors | poorly activated both receptors
– | 13 | – | 10 | – | – | – | 5 | – | – | 5.46 | – | < 5.00 | – | – | CSCC[C@@H]1NC(=O)[C@@H](NC(=O)[C@H](CCCNC(=N)N)NC(C)=O)CSSC[C@@H](C(N)=O)NC(=O)[C@@H]2CCCN2C(=O)[C@H](CCCNC(=N)N)NC(=O)[C@H](Cc2ccc(O)cc2)NC(=O)[C@H](C(C)C)NC(=O)[C@H](CCCNC(=N)N)NC(=O)[C@@H]2CCCN2C(=O)[C@H](CC(C)C)NC1=O [SEQ. ID. NO. 22] | virtually inactive at micromolar concentrations | virtually inactive at micromolar concentrations
– | 87 | 0.7 | 120 | – | – | – | 100 | – | – | 7.26 | – | – | – | – | CSCC[C@@H]1NC(=O)[C@@H](NC(=O)[C@H](CCCNC(=N)N)NC(C)=O)CSSC[C@@H](C(N)=O)NC(=O)[C@@H]2CCCN2C(=O)[C@H](CCCNC(=N)N)NC(=O)[C@H](Cc2ccc(O)cc2)NC(=O)[C@H](C(C)C)NC(=O)[C@H](CCCNC(=N)N)NC(=O)[C@H](CO)NC(=O)[C@H](CC(C)C)NC1=O [SEQ. ID. NO. 26] (HELM PEPTIDE1{[ac].R.C.M.L.S.R.V.Y.R.P.C.[am]}$PEPTIDE1,PEPTIDE1,3:R3-12:R3$$$V2.0) | – | –
< 5.00 | 11 | – | 74 | – | – | – | 230 | – | – | – | – | – | – | about 150 fold | CSCC[C@@H]1NC(=O)[C@@H](NC(=O)[C@@H](CCCNC(=N)N)NC(C)=O)CSSC[C@@H](C(N)=O)NC(=O)[C@@H]2CCCN2C(=O)[C@H](CCCNC(=N)N)NC(=O)[C@H](Cc2ccc(O)cc2)NC(=O)[C@H](C(C)C)NC(=O)[C@H](CCCNC(=N)N)NC(=O)[C@H](CCC(N)=O)NC(=O)[C@H](CC(C)C)NC1=O [SEQ. ID. NO. 30] (HELM PEPTIDE1{[ac].[dR].C.M.L.Q.R.V.Y.R.P.C.[am]}$PEPTIDE1,PEPTIDE1,3:R3-12:R3$$$V2.0) | – | activated hMCH-1R almost as efficiently as Ac-hMCH(6-16)NH2
